Results published in US20240052300A1, “DIFFUSION GRADIENT ASSAY FOR ANTI-CD3-CONTAINING MOLECULES” (priority 2020, published 2024).
Side-chain parts run from the residue outwards. [ ]: non-standard residue; d: D form. pGlu = O=C1CC[C@@H](C(=O)O)N1

Columns and labels:
[1] = system: recombinant canonical BiTE® protein; assay: Size exclusion chromatography with fluorescence detection of CD3-AF488 bound to secreted BiTE; type: binding; settings: secretion medium mixed with reagent, capture chromatography, FIG. 1B
Procedure: 100 μl of 0.2 μm filtrated mammalian cell culture samples containing expressed BiTE® constructs featuring human CD3e binding binders were mixed with 2.5 μl peptide-fluorochrome conjugate and transferred into autosampler vials. The vials were placed onto an autosampler connected to an Ultra High Performance Liquid Chromatography ACQUITY UPLC device (Waters, Eschborn, Germany) featuring a fluorescence detector. An analytical size exclusion chromatography BEH200 SEC 1.7 μm column (Waters, Eschborn, Germany) was connected to the UHPLC and equilibrated with a water-based buffer system containing 10 mM Citric Acid, 75 mM Lysine HCl, adjusted to pH 7.0. 10 μl of each prepared sample were applied to the column and eluted using isocratic elution. Detection was performed by using fluorescence detection at 490 nm excitation and 520 nm emission wavelength. […] Both, unpurified secretion medium and purified material were subsequently analyzed by size exclusion chromatography equipped with fluorescence detector (FIG. 1B, C). This setup allowed monitoring of the elution profile of the CD3-AF488 peptide and its bound protein complexes in the context of the whole protein content present in analyzed samples. The UV absorbance (A280 nm) elution profile of purified material allowed for identification of BiTE® monomers, dimers and HMW species (FIG. 1B).

IgG-fusion protein = settings: day 5 on chip; FIG. 3A-C
Procedure: (§1) The CD3 diffusion assay peptide reagent was resuspended in DMSO at 1 mg/ml and stored protected from light at −20° C. for long term storage. For short term storage the assay reagent was further diluted to 4 μg/ml in PBS and stored at 4° C. Prior executing the diffusion gradient assay to detect BiTE® secretion on nanofluidic chip the CD3 diffusion assay reagent was diluted in cell culture medium to 0.2 μg/ml concentration, filtered through 22 μm filter, transferred to 96 well plate and incorporated on the chip. The assay reagent was perfused on the chip at 0.014 μl/sec flow rate for the duration of 45 minutes. In FIG. 4, once the equilibration step was complete the assay reagent was flushed out with 250 μl of cell culture medium at a 20/sec flow rate followed by an additional flush with the cell culture medium at the 0.1667 μl/sec flow rate for the duration of 20 mins. The chip was then imaged through TRED filter cube using 900 ms exposure time and 100% illumination settings.
(§2) In FIG. 2, the CD3 diffusion assay reagent was used at 0.125 μg/ml final concentration. […]
(§3) For CD3 diffusion assays shown in FIGS. 3 and 4, the reference assay was run on an empty chip in order to generate reference images used for normalizing the CD3 diffusion assay score against chip position effects and background fluorescence signal. […]
(§4) Next, the specificity of the BiTE® diffusion gradient assay was assessed. […]

[2] = system: BiTE® recombinant protein
Procedure: The ability of the CD3-AF594 peptide conjugate to be used for diffusion gradient assays to detect secretion of recombinant CD3 binders on Berkeley Light's nanofluidic chip (FIG. 2A) was assessed next. Cells expressing the BiTE® modality were loaded onto a BLI platform using a standard cell line development workflow. Single cells were deposited in Nanopens™, and subsequently cultured under perfusion for the duration of 6 days. The CD3 reagent was used in a diffusion gradient assay using optimized settings as described herein.

BiTE®-Fc fusion = assay: On-chip CD3 diffusion gradient assay, BiTE-Fc secreting cells; settings: day 5 on chip; FIG. 3A,B
Procedure: as §1, §2, §3, §4

Substance | complex formation with BiTE® recombinant protein (fluorescent SEC elution profile) [1] | detection of secretion of the IgG-fusion protein (IgG-fusion protein) | fluorescent signal in pens with BiTE® expressing cells vs empty pens ([2]; 6 days perfusion culture, reagent 0.125 μg/ml, FIG. 2B) | detection of secretion of BiTE® expressing cell lines ([2]; day 5 on chip, FIG. 3A-C) | detection of secretion of the BiTE®-Fc protein product (BiTE®-Fc fusion)
CD3-AF488 peptide ([pGlu]DGNEEMGGC([C5 maleimide-Alexa Fluor 488])-NH2) | formed a complex with the BiTE® recombinant protein | – | – | – | –
Pyroglutamate-DGNEEMGGC-AF594 [CD3-AF594 conjugate] | – | failed to detect secretion | High fluorescent signal | efficiently detected secretion | detected
